Results as given in paper PMC11345841, “Exploring 2-Sulfonylpyrimidine Warheads as Acrylamide Surrogates for Targeted Covalent Inhibition: A BTK Story” (Journal of Medicinal Chemistry, 2024).
Read-outs that look alike come from different tables or passages of the source.

What was measured:
KIT(D816V) = target: T1, KIT(D816V) (Homo sapiens, UniProt P10721, D816V); assay: KINOMEscan ScanTK; type: binding
T1 construct: purchased Eurofins DiscoverX KINOMEscan (scanTK)

FLT3(ITD) = assay: KINOMEscan ScanTK; type: binding; conditions: for % difference (compound - Ib %Control) / %Control: @1000nM
TYRO3 = target: T2, TYRO3 (Homo sapiens, UniProt Q06418); assay: KINOMEscan ScanTK; type: binding
T2 construct: purchased Eurofins DiscoverX KINOMEscan (scanTK)
T2 sequence (Q06418 41-890): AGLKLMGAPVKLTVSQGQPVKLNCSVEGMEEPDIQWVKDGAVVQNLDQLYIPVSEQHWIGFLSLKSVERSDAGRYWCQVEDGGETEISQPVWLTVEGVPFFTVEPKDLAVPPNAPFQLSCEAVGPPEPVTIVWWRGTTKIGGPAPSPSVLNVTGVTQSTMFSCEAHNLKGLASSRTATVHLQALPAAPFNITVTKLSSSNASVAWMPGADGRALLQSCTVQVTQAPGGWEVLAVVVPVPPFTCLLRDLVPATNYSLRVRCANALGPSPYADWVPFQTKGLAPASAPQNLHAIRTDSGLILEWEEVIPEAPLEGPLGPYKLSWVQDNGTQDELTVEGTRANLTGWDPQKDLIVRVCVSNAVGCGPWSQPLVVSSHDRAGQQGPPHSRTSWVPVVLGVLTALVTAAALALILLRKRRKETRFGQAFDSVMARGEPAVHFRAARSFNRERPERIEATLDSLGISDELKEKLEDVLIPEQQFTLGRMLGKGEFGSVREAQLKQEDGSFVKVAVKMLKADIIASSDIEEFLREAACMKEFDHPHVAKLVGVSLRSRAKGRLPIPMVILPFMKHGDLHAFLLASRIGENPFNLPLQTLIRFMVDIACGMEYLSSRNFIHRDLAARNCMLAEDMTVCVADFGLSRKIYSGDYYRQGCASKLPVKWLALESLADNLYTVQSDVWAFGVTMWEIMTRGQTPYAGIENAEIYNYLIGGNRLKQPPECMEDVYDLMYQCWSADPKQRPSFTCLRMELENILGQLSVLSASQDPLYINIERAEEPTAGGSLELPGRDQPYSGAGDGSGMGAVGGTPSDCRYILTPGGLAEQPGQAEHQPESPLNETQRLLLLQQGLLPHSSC

ALK(C1156Y) = target: T3, ALK(C1156Y) (Homo sapiens, UniProt Q9UM73, C1156Y); assay: KINOMEscan ScanTK; type: binding
T3 construct: purchased Eurofins DiscoverX KINOMEscan (scanTK)
T3 sequence (Q9UM73 19-1620 C1156Y): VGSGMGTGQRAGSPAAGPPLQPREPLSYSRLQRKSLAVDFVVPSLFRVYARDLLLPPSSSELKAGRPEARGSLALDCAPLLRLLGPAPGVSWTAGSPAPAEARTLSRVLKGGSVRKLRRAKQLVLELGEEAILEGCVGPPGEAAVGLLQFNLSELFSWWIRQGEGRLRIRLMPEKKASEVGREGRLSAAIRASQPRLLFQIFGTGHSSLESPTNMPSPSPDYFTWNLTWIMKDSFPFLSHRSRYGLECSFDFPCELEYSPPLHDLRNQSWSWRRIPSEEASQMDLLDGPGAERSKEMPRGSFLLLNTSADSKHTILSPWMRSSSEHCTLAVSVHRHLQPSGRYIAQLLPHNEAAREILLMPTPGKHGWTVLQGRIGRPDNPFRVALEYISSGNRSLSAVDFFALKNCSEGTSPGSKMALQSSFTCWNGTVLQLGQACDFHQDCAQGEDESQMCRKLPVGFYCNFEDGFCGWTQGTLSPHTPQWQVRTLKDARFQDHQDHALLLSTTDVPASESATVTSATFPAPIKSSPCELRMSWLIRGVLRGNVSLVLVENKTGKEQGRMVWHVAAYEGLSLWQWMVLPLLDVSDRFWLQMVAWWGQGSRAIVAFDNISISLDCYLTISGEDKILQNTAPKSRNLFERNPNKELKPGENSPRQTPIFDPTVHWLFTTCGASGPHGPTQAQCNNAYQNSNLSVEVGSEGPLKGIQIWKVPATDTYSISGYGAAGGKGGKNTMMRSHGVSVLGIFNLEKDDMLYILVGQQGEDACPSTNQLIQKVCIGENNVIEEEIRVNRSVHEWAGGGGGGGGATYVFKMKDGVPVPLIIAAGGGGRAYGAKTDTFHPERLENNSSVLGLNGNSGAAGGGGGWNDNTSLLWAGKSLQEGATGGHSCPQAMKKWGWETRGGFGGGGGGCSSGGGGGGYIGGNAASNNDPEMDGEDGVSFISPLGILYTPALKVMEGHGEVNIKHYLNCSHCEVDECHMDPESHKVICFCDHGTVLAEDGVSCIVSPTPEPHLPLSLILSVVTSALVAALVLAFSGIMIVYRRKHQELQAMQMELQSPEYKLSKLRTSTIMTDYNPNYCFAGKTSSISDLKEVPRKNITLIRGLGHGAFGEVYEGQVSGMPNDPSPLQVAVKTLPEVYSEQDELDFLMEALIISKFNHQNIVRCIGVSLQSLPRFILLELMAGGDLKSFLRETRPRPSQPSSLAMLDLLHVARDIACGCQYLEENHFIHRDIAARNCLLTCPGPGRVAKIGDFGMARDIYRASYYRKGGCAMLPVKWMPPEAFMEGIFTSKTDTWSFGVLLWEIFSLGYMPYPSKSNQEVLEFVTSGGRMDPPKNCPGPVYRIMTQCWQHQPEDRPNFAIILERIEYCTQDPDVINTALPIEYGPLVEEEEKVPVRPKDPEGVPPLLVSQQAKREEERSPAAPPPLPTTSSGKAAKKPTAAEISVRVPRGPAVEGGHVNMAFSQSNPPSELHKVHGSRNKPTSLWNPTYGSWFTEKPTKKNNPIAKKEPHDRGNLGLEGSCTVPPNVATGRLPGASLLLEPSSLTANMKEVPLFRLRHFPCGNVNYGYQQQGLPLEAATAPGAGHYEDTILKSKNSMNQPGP

CSF1R-autoinhibited = target: T4, CSF1R-autoinhibited (Homo sapiens, UniProt P07333); assay: KINOMEscan ScanTK; type: binding
T4 construct: purchased Eurofins DiscoverX KINOMEscan (scanTK)
T4 sequence (P07333 539-972 limits assumed): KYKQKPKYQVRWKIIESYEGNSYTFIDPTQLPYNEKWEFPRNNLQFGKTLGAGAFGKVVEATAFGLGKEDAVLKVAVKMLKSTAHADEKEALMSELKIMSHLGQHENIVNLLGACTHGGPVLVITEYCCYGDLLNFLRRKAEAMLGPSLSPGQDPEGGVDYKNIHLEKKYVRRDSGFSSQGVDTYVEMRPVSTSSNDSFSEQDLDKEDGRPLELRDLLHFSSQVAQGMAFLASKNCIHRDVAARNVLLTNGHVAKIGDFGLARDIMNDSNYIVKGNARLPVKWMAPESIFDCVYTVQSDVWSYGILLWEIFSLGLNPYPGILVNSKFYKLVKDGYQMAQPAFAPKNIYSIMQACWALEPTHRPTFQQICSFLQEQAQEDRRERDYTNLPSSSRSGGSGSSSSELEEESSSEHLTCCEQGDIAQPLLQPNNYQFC

ITK, full length = target: T5, ITK, full length (Homo sapiens, UniProt Q08881); assay: PhosphoSens enzymatic IC50 (AssayQuant)
T5 sequence (Q08881 1-620): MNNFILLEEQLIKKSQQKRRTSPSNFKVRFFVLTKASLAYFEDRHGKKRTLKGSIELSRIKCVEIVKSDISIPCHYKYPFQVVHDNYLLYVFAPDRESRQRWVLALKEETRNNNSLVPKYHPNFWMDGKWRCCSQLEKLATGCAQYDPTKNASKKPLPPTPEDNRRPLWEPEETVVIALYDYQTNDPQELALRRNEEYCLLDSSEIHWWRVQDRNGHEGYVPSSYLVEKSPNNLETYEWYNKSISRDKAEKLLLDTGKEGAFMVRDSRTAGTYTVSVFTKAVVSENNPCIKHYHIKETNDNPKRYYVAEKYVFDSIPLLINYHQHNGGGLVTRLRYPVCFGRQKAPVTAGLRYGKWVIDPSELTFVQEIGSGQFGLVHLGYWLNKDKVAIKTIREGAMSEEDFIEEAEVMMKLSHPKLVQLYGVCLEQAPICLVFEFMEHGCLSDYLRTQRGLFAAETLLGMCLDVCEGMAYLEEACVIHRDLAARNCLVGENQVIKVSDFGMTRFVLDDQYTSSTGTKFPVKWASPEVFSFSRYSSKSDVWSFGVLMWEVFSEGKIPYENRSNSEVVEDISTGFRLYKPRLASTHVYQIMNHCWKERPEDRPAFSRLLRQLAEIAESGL

T1 sequence (P10721 26-976 D816V): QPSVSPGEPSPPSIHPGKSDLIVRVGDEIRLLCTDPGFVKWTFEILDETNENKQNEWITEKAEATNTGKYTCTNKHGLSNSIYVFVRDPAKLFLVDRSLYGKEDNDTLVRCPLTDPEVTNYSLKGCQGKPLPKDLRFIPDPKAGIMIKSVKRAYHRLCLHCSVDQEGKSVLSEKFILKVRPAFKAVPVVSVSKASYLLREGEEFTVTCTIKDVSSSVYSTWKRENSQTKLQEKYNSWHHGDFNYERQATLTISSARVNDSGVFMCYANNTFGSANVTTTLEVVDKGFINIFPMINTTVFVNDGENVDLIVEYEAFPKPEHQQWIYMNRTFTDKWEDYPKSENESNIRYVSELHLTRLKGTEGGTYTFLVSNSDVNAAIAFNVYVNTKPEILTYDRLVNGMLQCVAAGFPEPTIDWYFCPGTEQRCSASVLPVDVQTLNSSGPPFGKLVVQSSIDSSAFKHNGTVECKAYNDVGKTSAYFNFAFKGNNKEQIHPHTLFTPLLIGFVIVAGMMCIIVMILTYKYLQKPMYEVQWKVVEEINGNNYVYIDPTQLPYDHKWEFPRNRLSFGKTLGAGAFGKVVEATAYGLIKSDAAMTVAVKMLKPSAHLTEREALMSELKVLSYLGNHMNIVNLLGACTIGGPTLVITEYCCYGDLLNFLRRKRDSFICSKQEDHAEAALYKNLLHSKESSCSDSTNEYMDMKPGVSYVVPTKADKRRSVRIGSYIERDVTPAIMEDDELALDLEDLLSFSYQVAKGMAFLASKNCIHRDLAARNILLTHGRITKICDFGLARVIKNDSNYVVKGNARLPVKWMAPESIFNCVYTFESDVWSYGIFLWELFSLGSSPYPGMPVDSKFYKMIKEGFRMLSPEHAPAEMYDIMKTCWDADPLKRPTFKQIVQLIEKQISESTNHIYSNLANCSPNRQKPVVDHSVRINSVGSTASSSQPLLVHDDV

| remaining binding at 1 µM (KIT(D816V); @1000nM, read-out: %Control) | remaining binding at 1 µM (KIT(D816V); read-out: %Control @1000nM) | remaining binding at 1 µM (TYRO3; @1000nM, read-out: %Control) | remaining binding at 1 µM (TYRO3; read-out: %Control @1000nM) | difference in %Control versus compound Ib at 1 µM (ALK(C1156Y); @1000nM) | remaining binding at 1 µM (ALK(C1156Y); @1000nM, read-out: %Control) | remaining binding at 1 µM (ALK(C1156Y); read-out: %Control @1000nM) | difference in %Control versus compound Ib at 1 µM (CSF1R-autoinhibited; @1000nM) | remaining binding at 1 µM (CSF1R-autoinhibited; @1000nM, read-out: %Control) | remaining binding at 1 µM (CSF1R-autoinhibited; read-out: %Control @1000nM) | IC50 (ITK, full length) | SMILES | %Control @1000nM (FLT3(ITD)) | % difference (compound - Ib %Control) (FLT3(ITD)) | %Control (FLT3(ITD)) |
| --- | --- | --- | --- | --- | --- | --- | --- | --- | --- | --- | --- | --- | --- | --- |
| 85% | 85% | 40% | 40% | -8% | 90% | 90% | 20% | 97% | 97% |  | CCOC(=O)c1cnc(S(C)(=O)=O)nc1N1CCC[C@@H](n2nc(-c3ccc(Oc4ccccc4)cc3)c3c(N)ncnc32)C1 [Compound 8c, Ethyl (R)-4-(3-(4-Amino-3-(4-phenoxyphenyl)-1H-pyrazolo[3,4-d]pyrimidin-1-yl)piperidin-1-yl)-2-(methylsulfonyl)pyrimidine-5-carboxylate] | 100% | 28% | 100% |
| 85% | 85% | 33% | 33% | -8% | 90% | 90% | 7% | 84% | 84% | > 1000 nM | COC(=O)c1cnc(S(C)(=O)=O)nc1N1CCCC(n2nc(-c3ccc(Oc4ccccc4)cc3)c3c(N)ncnc32)C1 (centres unmarked) [Compound 8b, Methyl 4-(3-(4-Amino-3-(4-phenoxyphenyl)-1H-pyrazolo[3,4-d]pyrimidin-1-yl)piperidin-1-yl)-2-(methylsulfonyl)pyrimidine-5-carboxylate] | 100% | 28% | 100% |

The remaining lines, values behind:

| SMILES | remaining binding at 1 µM (KIT(D816V); @1000nM, read-out: %Control) | remaining binding at 1 µM (KIT(D816V); read-out: %Control @1000nM) | remaining binding at 1 µM (TYRO3; @1000nM, read-out: %Control) | remaining binding at 1 µM (TYRO3; read-out: %Control @1000nM) | difference in %Control versus compound Ib at 1 µM (ALK(C1156Y); @1000nM) | remaining binding at 1 µM (ALK(C1156Y); @1000nM, read-out: %Control) | remaining binding at 1 µM (ALK(C1156Y); read-out: %Control @1000nM) | difference in %Control versus compound Ib at 1 µM (CSF1R-autoinhibited; @1000nM) | remaining binding at 1 µM (CSF1R-autoinhibited; @1000nM, read-out: %Control) | remaining binding at 1 µM (CSF1R-autoinhibited; read-out: %Control @1000nM) | IC50 (ITK, full length) | %Control @1000nM (FLT3(ITD)) | % difference (compound - Ib %Control) (FLT3(ITD)) | %Control (FLT3(ITD)) |
| --- | --- | --- | --- | --- | --- | --- | --- | --- | --- | --- | --- | --- | --- | --- |
| Cc1cnc(S(C)(=O)=O)nc1N1CCCC(n2nc(-c3ccc(Oc4ccccc4)cc3)c3c(N)ncnc32)C1 (centres unmarked) [Compound 8a, 1-(1-(5-Methyl-2-(methylsulfonyl)pyrimidin-4-yl)piperidin-3-yl)-3-(4-phenoxyphenyl)-1H-pyrazolo[3,4-d]pyrimidin-4-amine] | 74% | 74% | 40% | 40% | -13% | 85% | 85% | 11% | 88% | 88% | > 1000 nM | 91% | 19% | 91% |
| C=CC(=O)N1CCC[C@@H](n2nc(-c3ccc(Oc4ccccc4)cc3)c3c(N)ncnc32)C1 [Compound 1g, Ibrutinib, reference compound] | 86% | 86% | 34% | 34% |  | 98% | 98% |  | 77% | 77% |  | 72% |  | 72% |
| CNC(=O)c1cnc(S(C)(=O)=O)nc1N1CCCC(n2nc(-c3ccc(Oc4ccccc4)cc3)c3c(N)ncnc32)C1 (centres unmarked) [Compound 8d, 4-(3-(4-Amino-3-(4-phenoxyphenyl)-1H-pyrazolo[3,4-d]pyrimidin-1-yl)piperidin-1-yl)-N-methyl-2-(methylsulfonyl)pyrimidine-5-carboxamide] | 84% | 84% | 32% | 32% | -10% | 88% | 88% | 9% | 86% | 86% | > 1000 nM | 94% | 22% | 94% |
